Experimental findings from patent US20250129344A1, “MODIFIED GLUTAMATE DEHYDROGENASE AND APPLICATION THEREOF” (Hunan Lier Biotech Co., Ltd., priority 2021, published 2025) are described below.

Substitutions are numbered along the chain they refer to.

What all share (assay type): biochemical
Common to all, as to details: PPO 5-100 mM, NADPH 0.15 mM, NH4Cl 50 mM, PBS pH 7.5, 30° C., diluted crude enzyme, 340 nm

Assay [1] deals with Bacillus velezensis glutamate dehydrogenase (BvGluDH, SEQ ID NO: 1) variant A175G-G181K, SEQ ID NO: 9. Put plainly: Dynamic properties (Michaelis-Menten) of BvGluDH mutant, PPO reductive amination. The method, then:
(§1) A plurality of reaction systems (200 μL) comprising PBS of 100 mM pH 7.5 (pH was adjusted with aqueous ammonia solution), NADPH (reductive) of 0.15 mM, NH4Cl of 50 mM, diluted (500 folds) crude enzyme solution of 10% volume and the substrate PPO at various concentrations (5-100 mM) were formulated on a 96-well plate. The intensity of the UV absorption at 340 nm was detected at 30° C., and the rate of change in absorption over time (mA/min) was recorded. The obtained parameters were plugged into Michaelis-Menten equation, in which the reaction velocity was calculated with the rate of change in absorption.
(§2) The mutants were prepared with the coding nucleic acid of BvGluDH (SEQ ID NO: 1) as the template, and the enzyme activities and the dynamic parameters Vmax and Km were measured, according to the method of Example 1. The resulted mutants and the enzyme activities and the dynamic parameters thereof are shown in Table 1, and the relative enzyme activity means the percentage of the enzyme activity of the mutant to the enzyme activity of the mutant of SEQ ID NO: 3.

The subject of assay [2] is Bacillus velezensis glutamate dehydrogenase (BvGluDH, SEQ ID NO: 1) variant A175G-L104C, SEQ ID NO: 4. The assay is described as above. On the procedure: as §1, §2
The subject of assay [3] is Bacillus velezensis glutamate dehydrogenase (BvGluDH, SEQ ID NO: 1) variant A175G, SEQ ID NO: 3. The assay is described as above. The method, then: as §1, §2
For assay [4], the system named is Bacillus velezensis glutamate dehydrogenase (BvGluDH, SEQ ID NO: 1) variant A175G-V173G, SEQ ID NO: 8. The assay is described as above. The method, then: as §1, §2
For assay [5], the system named is Bacillus velezensis glutamate dehydrogenase (BvGluDH, SEQ ID NO: 1) variant A175G-V173G-A182R, SEQ ID NO: 21. The description is as above. On the procedure: as §1, §2
In assay [6] the test system is Bacillus velezensis glutamate dehydrogenase (BvGluDH, SEQ ID NO: 1) variant A175G-P132L, SEQ ID NO: 5. Described as above. On the procedure: as §1, §2
In assay [7] the test system is Bacillus velezensis glutamate dehydrogenase (BvGluDH, SEQ ID NO: 1) variant A175G-G181R, SEQ ID NO: 10. The assay is described as above. On the procedure:
as §1, §2

Assay [8] relates to Bacillus velezensis glutamate dehydrogenase (BvGluDH, SEQ ID NO: 1) variant A175G-I133V, SEQ ID NO: 6. The assay is described as above. The method, then:
as §1, §2

The test system of assay [9] is Bacillus velezensis glutamate dehydrogenase (BvGluDH, SEQ ID NO: 1) variant A175G-A182R, SEQ ID NO: 11. The assay is described as above. On the procedure: as §1, §2
The test system of assay [10] is Bacillus velezensis glutamate dehydrogenase (BvGluDH, SEQ ID NO: 1) variant A175G-V173S, SEQ ID NO: 7. The description is as above. On the procedure:
as §1, §2

The target of assay [11] is T1, Lysinibacillus sphaericus glutamate dehydrogenase (LsGluDH, SEQ ID NO: 2) variant A175G-V173G-A182R, SEQ ID NO: 37 (Lysinibacillus pinottii, UniProt A0ABT2DNY0, A175G/A182R/V173G).
T1 sequence (A0ABT2DNY0 1-457 V173G/A175G/A182R): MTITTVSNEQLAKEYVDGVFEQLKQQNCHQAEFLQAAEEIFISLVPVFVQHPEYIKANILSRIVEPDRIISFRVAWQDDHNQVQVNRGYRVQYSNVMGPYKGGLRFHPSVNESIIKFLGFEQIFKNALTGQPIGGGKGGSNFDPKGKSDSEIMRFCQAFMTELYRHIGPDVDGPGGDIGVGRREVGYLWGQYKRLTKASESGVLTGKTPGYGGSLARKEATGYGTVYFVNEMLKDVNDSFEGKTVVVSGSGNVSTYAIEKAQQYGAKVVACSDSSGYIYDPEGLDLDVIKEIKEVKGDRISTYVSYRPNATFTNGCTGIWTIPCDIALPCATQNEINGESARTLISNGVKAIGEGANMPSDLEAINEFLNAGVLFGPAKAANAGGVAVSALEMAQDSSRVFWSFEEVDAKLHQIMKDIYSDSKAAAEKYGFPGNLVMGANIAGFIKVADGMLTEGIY
Put plainly: Dynamic properties (Michaelis-Menten) of LsGluDH mutant, PPO reductive amination. On the procedure:
as §1
(§3) The mutants were prepared with the coding nucleic acid of LsGluDH (SEQ ID NO: 2) as the template, and the enzyme activities and the dynamic parameters Vmax and Km were measured, according to the method of Example 1. The resulted mutants and the enzyme activities and the dynamic parameters thereof are shown in Table 2, and the relative enzyme activity means the percentage of the enzyme activity of the mutant to the enzyme activity of the mutant of SEQ ID NO: 31.

The target in assay [12] is T2, Lysinibacillus sphaericus glutamate dehydrogenase (LsGluDH, SEQ ID NO: 2) variant A175G-V173S, SEQ ID NO: 34 (Lysinibacillus pinottii, UniProt A0ABT2DNY0, A175G/V173S).
T2 sequence (A0ABT2DNY0 1-457 V173S/A175G): T1 sequence (A0ABT2DNY0 1-457 V173G/A175G/A182R) with G173S, R182A
The assay is described as above. On the procedure: as §1, §3

What is called Km is the concentration of substrate that gives half-maximal velocity. As to `CP(=O)(O)CCC(=O)C(=O)O` [PPO, 2-carbonyl-4-(hydroxymethylphosphono) butyric acid], the Km in [1] was 80 mM; in assay [2], 34 mM; in [3] it was 73 mM; in assay [4] it was 53 mM; in assay [5], 23 mM; in [6] it was 32 mM. In addition, the Km came out at 84 mM in assay [7]; 43 mM in [8]; 46 mM in assay [9]; 52 mM in assay [10]; 31 mM in [11]; 62 mM in assay [12]. For the same compound, the Vmax in assay [1] was determined as 70 mA/min; in assay [2], 60 mA/min; in [3] it was 60 mA/min; in assay [4], 80 mA/min; in [5], 71 mA/min; in [6] it was 56 mA/min. In addition, the Vmax in assay [7] was 77 mA/min; in assay [8], 59 mA/min; in assay [9], 61 mA/min; in assay [10] it was 79 mA/min; in assay [11], 58 mA/min; in assay [12], 106 mA/min.
